In this assay the target is low-density lipoprotein receptor (LDLR)-related protein 6 (LRP6) (Homo sapiens, UniProt O75581). The experiment in a line: SPR on immobilized recombinant LRP6. The assay is classed as binding.

The text below walks through data of article PMC6090075 (Acta Pharmaceutica Sinica. B, 2017).

Sequence of low-density lipoprotein receptor (LDLR)-related protein 6 (LRP6) (O75581 20-1613): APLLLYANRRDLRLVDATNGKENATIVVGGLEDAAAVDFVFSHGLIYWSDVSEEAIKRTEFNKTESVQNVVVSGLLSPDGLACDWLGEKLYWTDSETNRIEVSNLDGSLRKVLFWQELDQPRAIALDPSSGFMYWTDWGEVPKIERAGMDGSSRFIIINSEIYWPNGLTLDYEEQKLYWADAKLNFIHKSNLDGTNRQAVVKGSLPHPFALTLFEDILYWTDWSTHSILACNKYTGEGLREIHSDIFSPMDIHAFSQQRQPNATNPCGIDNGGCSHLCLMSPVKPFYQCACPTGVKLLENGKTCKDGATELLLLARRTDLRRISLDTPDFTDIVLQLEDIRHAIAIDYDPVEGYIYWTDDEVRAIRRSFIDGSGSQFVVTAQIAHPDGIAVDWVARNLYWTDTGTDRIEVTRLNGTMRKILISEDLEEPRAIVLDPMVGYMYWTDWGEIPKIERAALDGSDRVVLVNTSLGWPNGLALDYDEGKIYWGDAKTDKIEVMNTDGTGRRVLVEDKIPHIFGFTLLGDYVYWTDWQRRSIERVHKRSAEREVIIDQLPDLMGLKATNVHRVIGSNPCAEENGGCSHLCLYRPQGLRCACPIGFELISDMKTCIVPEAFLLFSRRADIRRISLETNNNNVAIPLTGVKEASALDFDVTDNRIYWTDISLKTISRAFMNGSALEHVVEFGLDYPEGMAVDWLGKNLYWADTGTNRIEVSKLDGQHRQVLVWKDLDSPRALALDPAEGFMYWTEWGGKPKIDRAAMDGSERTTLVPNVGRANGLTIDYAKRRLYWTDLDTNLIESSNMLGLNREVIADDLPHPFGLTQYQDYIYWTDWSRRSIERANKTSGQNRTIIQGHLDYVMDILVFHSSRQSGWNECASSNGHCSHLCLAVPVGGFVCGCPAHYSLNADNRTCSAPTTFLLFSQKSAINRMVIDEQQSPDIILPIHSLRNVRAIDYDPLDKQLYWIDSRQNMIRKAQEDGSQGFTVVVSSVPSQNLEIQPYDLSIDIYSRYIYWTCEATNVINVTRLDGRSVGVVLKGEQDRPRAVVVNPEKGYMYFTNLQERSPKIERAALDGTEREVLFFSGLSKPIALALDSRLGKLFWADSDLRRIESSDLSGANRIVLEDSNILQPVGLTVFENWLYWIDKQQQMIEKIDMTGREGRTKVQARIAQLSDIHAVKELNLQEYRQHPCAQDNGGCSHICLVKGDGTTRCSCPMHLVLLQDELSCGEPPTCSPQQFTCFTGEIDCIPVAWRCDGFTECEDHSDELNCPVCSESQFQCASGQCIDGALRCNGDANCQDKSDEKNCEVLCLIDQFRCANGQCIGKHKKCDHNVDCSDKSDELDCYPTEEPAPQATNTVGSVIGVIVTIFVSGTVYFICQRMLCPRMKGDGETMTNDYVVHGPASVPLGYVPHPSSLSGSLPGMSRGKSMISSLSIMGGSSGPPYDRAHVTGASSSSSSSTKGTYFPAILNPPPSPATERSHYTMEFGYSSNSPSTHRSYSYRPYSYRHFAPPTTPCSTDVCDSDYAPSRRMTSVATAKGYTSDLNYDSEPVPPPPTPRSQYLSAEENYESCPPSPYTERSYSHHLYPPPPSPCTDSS

As for `C=CCSSC[C@H](N)C(=O)O` [SAMC, S-allylmercaptocysteine], the Kd is 5.65 µM.

What is called Kd is the equilibrium constant for the complex coming apart.
